Values joined by “and” are separate entries in the source; they are usually repeats but may differ in a detail not shown here. Equal values may be shown once. Read-outs that look alike come from different tables or passages of the source.
Key:
SARS-CoV-2 M^pro [1] = target: T1, SARS-CoV-2 M^pro (Severe acute respiratory syndrome coronavirus 2, UniProt P0DTD1); assay: biochemical; design: inhibition: dose or concentration left out as unconfirmed
SARS-CoV-2 M^pro [2] = target: T1, SARS-CoV-2 M^pro; assay: Mpro substrate cleavage by gel electrophoresis (SDS-PAGE) and densitometry; assay type: biochemical; conditions: normalized gel densitometry data (red values of Figure 2D); read-out: IC50 against Mpro, gel electrophoresis and densitometry
[3] = system: SARS-CoV-2 expressing the mNeon reporter gene; assay: microbe, parasite or virus in culture; assay type: cell-based; conditions: read-out: IC50 against SARS-CoV-2
Mpro = conditions: slightly shorter fluorogenic substrate; ref Li et al., 2020; read-out: IC50 as Mpro inhibitor (literature); cited from earlier work
in vitro = conditions: African green monkey

CCOc1nc2cccc(C(=O)OC(C)OC(=O)OC3CCCCC3)c2n1Cc1ccc(-c2ccccc2-c2nnn[nH]2)cc1 (centres unmarked) [Candesartan Cilexetil]
inhibition (SARS-CoV-2 M^pro [1]; initial screen, Table S4, read-out: Normalized Percent FRET inhibition): 153%
IC50 (SARS-CoV-2 M^pro [1]; normalized FRET data, technical duplicates, end-point about 4 h, read-out: IC50 against Mpro, FRET values): ~67 µM and 67.4 µM
inhibition of the activity of Mpro in secondary screen (SARS-CoV-2 M^pro [1]; re-screen at 100 μM): completely inhibit
IC50 (SARS-CoV-2 M^pro [2]): 77.1 µM
IC50 ([3]; Severe acute respiratory syndrome coronavirus 2, Vero, 18 h): ~10 µM
IC50 [3]: 10.4 µM
IC50 (Mpro): 2.8 µM
CC50 (in vitro): > 100 µM
